Experimental data published in US12692254B2, “Benzimidazole inhibitors of PAD enzymes” (BRISTOL-MYERS SQUIBB COMPANY, priority 2018, dated 2026).

target: human PAD4 (hPAD4) (Homo sapiens, UniProt Q9UM07); assay: RFMS human PAD4 functional assay (rapid-fire mass spectrum); type: biochemical; conditions: 5 nM hPAD4 enzyme, 250 μM BAEE, 50 μM Calcium; 30 min preincubation, 90 min reaction at 37° C.
Procedure, shortened: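 PAD4 (10 nM) preincubated 30 min with compound (top final 50 μM), then BAEE substrate added in pH 7.5 HEPES buffer with DTT, 50 μM calcium, TPEN; 90 min at 37° C. After TCA quench, citrulline derivatized with phenyl glyoxal (4 mM final, 30 min, 37° C) and quantified by RapidFire MS against internal standard.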

Chain of human PAD4 (hPAD4) (Q9UM07 whole entry): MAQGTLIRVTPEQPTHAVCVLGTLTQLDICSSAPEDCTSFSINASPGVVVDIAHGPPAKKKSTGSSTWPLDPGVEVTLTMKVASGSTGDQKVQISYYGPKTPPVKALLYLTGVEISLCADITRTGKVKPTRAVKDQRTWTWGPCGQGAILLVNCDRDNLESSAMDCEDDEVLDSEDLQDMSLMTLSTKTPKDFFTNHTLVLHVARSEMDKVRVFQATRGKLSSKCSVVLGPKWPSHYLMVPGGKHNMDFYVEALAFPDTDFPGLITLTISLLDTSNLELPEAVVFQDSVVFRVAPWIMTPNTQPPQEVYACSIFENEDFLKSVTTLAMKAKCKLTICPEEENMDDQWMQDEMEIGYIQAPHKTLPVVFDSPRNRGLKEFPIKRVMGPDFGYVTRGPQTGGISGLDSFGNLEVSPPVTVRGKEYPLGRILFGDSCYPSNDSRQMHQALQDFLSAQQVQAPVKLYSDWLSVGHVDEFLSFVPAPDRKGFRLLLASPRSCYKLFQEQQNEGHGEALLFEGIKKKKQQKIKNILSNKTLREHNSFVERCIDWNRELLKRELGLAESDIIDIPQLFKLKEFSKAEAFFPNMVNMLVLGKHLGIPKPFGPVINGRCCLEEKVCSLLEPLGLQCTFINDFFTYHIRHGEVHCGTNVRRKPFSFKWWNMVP

IC50 | SMILES
59 nM | COc1cc(C(=O)N2CC3CCC2[C@@H]3N)cc2nc(-c3cc4cccnc4n3CC3CC3)n(CC3CN(C(=O)c4cccc(Cl)c4)C3)c12 (stereo partly drawn) [Example 456, (7R)-2-(1-{[1-(3-chlorobenzoyl)azetidin-3-yl]methyl}-2-[1-(cyclopropylmethyl)-1H-pyrrolo[2,3-b]pyridin-2-yl]-7-methoxy-1H-1,3-benzodiazole-5-carbonyl)-2-azabicyclo[2.2.1]heptan-7-amine]
100 nM | COc1cc(C(=O)N2C[C@H]3CC[C@@H]2[C@@H]3N)cc2nc(-c3cc4ccccc4n3C)n(CC3CN(c4cncc(C#N)n4)C3)c12 [Example 41, 6-[3-({5-[(1R,4R,7R)-7-amino-2-azabicyclo[2.2.1]heptane-2-carbonyl]-7-methoxy-2-(1-methyl-1H-indol-2-yl)-1H-1,3-benzodiazol-1-yl}methyl)azetidin-1-yl]pyrazine-2-carbonitrile]
148 nM | COc1cc(C(=O)N2C[C@H]3CC[C@@H]2[C@@H]3N)cc2nc(-c3cc4cccnc4n3C)n(C[C@H]3CCN(c4cncc(C#N)c4)C3)c12 [Example 215, 5[(3S)-3-({5-[(1R,4R,7R)-7-amino-2-azabicyclo[2.2.1]heptane-2-carbonyl]-7-methoxy-2-{1-methyl-1H-pyrrolo[2,3-b]pyridin-2-yl}-1H-1,3-benzodiazol-1-yl}methyl)pyrrolidin-1-yl]pyridine-3-carbonitrile]
54 nM | COc1cc(C(=O)N2CC3CCC2[C@@H]3N)cc2nc(-c3cc4cccnc4n3CC3CC3)n(Cc3cnn(-c4ncccn4)c3)c12 (stereo partly drawn) [Example 398, (7R)-2-{2-[1-(cyclopropylmethyl)-1H-pyrrolo[2,3-b]pyridin-2-yl]-7-methoxy-1-{[1-(pyrimidin-2-yl)-1H-pyrazol-4-yl]methyl}-1H-1,3-benzodiazole-5-carbonyl}-2-azabicyclo[2.2.1]heptan-7-amine]
59 nM | COc1cc(C(=O)N2CC3CCC2[C@@H]3N)cc2nc(-c3cc4cccnc4n3CC3CC3)n(CC3CN(C(=O)Nc4ccccc4)C3)c12 (stereo partly drawn) [Example 455, 3-({5-[(7R)-7-amino-2-azabicyclo[2.2.1]heptane-2-carbonyl]-2-[1-(cyclopropylmethyl)-1H-pyrrolo[2,3-b]pyridin-2-yl]-7-methoxy-1H-1,3-benzodiazol-1-yl}methyl)-N-phenylazetidine-1-carboxamide]
122 nM | COc1cc(C(=O)N2C[C@H]3CC[C@@H]2[C@@H]3N)cc2nc(-c3cc4ccccc4n3C)n(CC3CN(c4ncccn4)C3)c12 [Example 48, (1R,4R,7R)-2-[7-methoxy-2-(1-methyl-1H-indol-2-yl)-1-{[1-(pyrimidin-2-yl)azetidin-3-yl]methyl}-1H-1,3-benzodiazole-5-carbonyl]-2-azabicyclo[2.2.1]heptan-7-amine]
72 nM | COc1cc(C(=O)N2C[C@H]3CC[C@@H]2[C@@H]3N)cc2nc(-c3cc4cccnc4n3C)n(CC3CN(c4ccnc(C#N)n4)C3)c12 [Example 26, 4-[3-({5-[(1R,4R,7R)-7-amino-2-azabicyclo[2.2.1]heptane-2-carbonyl]-7-methoxy-2-{1-methyl-1H-pyrrolo[2,3-b]pyridin-2-yl}-1H-1,3-benzodiazol-1-yl}methyl)azetidin-1-yl]pyrimidine-2-carbonitrile]
29 nM | COc1cc(C(=O)N2CC3CCC2[C@@H]3N)cc2nc(-c3cc4cccnc4n3CC3CC3)n(Cc3cnn(-c4ccccc4)c3)c12 (stereo partly drawn) [Example 367, (7R)-2-{2-[1-(cyclopropylmethyl)-1H-pyrrolo[2,3-b]pyridin-2-yl]-7-methoxy-1-[(1-phenyl-1H-pyrazol-4-yl)methyl]-1H-1,3-benzodiazole-5-carbonyl}-2-azabicyclo[2.2.1]heptan-7-amine]
27 nM | COc1cc(C(=O)N2C[C@H]3CC[C@@H]2[C@@H]3N)cc2nc(-c3cc4ccccc4n3CC3CC3)n(Cc3cnn(-c4ccccc4)c3)c12 [Example 253, (1R,4R,7R)-2-{2-[1-(cyclopropylmethyl)-1H-indol-2-yl]-7-methoxy-1-[(1-phenyl-1H-pyrazol-4-yl)methyl]-1H-1,3-benzodiazole-5-carbonyl}-2-azabicyclo[2.2.1]heptan-7-amine]
41 nM | COc1cc(C(=O)N2CC3CCC2[C@@H]3N)cc2nc(-c3cc4ccccc4n3CC3CC3)n(CC3CN(C(=O)c4ccc(C#N)nc4)C3)c12 (stereo partly drawn) [Example 415, 5-[3-({5-[(7R)-7-amino-2-azabicyclo[2.2.1]heptane-2-carbonyl]-2-{1-(cyclopropylmethyl)-1H-indol-2-yl]-7-methoxy-1H-1,3-benzodiazol-1-yl}methyl)azetidine-1-carbonyl]pyridine-2-carbonitrile]
66 nM | COc1cc(C(=O)N2CC3CCC2[C@@H]3N)cc2nc(-c3cc4ccccc4n3CC3CC3)n(Cc3cnn(CC#N)c3)c12 (stereo partly drawn) [Example 405, 2-[4-({5-[(7R)-7-amino-2-azabicyclo[2.2.1]heptane-2-carbonyl]-2-[1-(cyclopropylmethyl)-1H-indol-2-yl]-7-methoxy-1H-1,3-benzodiazol-1-yl}methyl)-1H-pyrazol-1-yl]acetonitrile]
35 nM | COc1cc(C(=O)N2CC3CCC2[C@@H]3N)cc2nc(-c3cc4cccnc4n3CC3CC3)n(Cc3cnn(-c4cccnc4O)c3)c12 (stereo partly drawn) [Example 374, 3-[4-({5-[(7R)-7-amino-2-azabicyclo[2.2.1]heptane-2-carbonyl]-2-[1-(cyclopropylmethyl)-1H-pyrrolo[2,3-b]pyridin-2-yl]-7-methoxy-1H-1,3-benzodiazol-1-yl}methyl)-1H-pyrazol-1-yl]pyridin-2-ol]

The next lines start with the compound.

SMILES | IC50
COc1cc(C(=O)N2C[C@H](N)C[C@@H](F)C2)cc2nc(-c3cc4cccnc4n3CC3CC3)n(Cc3cnn(-c4ccc(F)cn4)c3)c12 [Example 345, (3R,5R)-1-{2-[1-(cyclopropylmethyl)-1H-pyrrolo[2,3-b]pyridin-2-yl]-1-{[1-(5-fluoropyridin-2-yl)-1H-pyrazol-4-yl]methyl}-7-methoxy-1H-1,3-benzodiazole-5-carbonyl}-5-fluoropiperidin-3-amine] | 49 nM
COc1cc(C(=O)N2CC3CCC2[C@@H]3N)cc2nc(-c3cc4cccnc4n3CC3CC3)n(C3CCN(c4ccnc(C#N)n4)CC3)c12 (stereo partly drawn) [Example 237, 4-(4-{5-[(1R,4R,7R)-7-amino-2-azabicyclo[2.2.1]heptane-2-carbonyl]-2-[1-(cyclopropylmethyl)-1H-pyrrolo[2,3-b]pyridin-2-yl]-7-methoxy-1H-1,3-benzodiazol-1-yl}piperidin-l-yl)pyrimidine-2-carbonitrile] | 540 nM
COc1cc(C(=O)N2C[C@H](N)C[C@@H](F)C2)cc2nc(-c3cc4ccccc4n3CC3CC3)n(Cc3cc(C)nn3C)c12 [Example 276, (3R,5R)-1-{2-[1-(cyclopropylmethyl)-1H-indol-2-yl]-1-[(1,3-dimethyl-1H-pyrazol-5-yl)methyl]-7-methoxy-1H-1,3-benzodiazole-5-carbonyl}-5-fluoropiperidin-3-amine] | 298 nM
COc1cc(C(=O)N2CC3CCC2[C@@H]3N)cc2nc(-c3cc4cccnc4n3CC3CC3)n(CC3CN(C(=O)c4ccc(F)cc4)C3)c12 (stereo partly drawn) [Example 447, (7R)-2-{2-[1-(cyclopropylmethyl)-1H-pyrrolo[2,3-b]pyridin-2-yl]-1-{[1-(4-fluorobenzoyl)azetidin-3-yl]methyl}-7-methoxy-1H-1,3-benzodiazole-5-carbonyl}-2-azabicyclo[2.2.1]heptan-7-amine] | 43 nM
COc1cc(C(=O)N2C[C@H](N)C[C@@H](F)C2)cc2nc(-c3cc4ccccc4n3CC3CC3)n(CCCN3CCCC3=O)c12 [Example 274, 1-(3-{5-[(3R,5R)-3-amino-5-fluoropiperidine-1-carbonyl]-2-[1-(cyclopropylmethyl)-1H-indol-2-yl]-7-methoxy-1H-1,3-benzodiazol-1-yl}propyl)pyrrolidin-2-one] | 261 nM
COc1cc(C(=O)N2C[C@H](N)C[C@@H](F)C2)cc2nc(-c3cc4cccnc4n3CC3CC3)n(Cc3cnn(-c4cnccn4)c3)c12 [Example 397, (3R,5R)-1-{2-[1-(cyclopropylmethyl)-1H-pyrrolo[2,3-b]pyridin-2-yl]-7-methoxy-1-{[1-(pyrazin-2-yl)-1H-pyrazol-4-yl]methyl}-1H-1,3-benzodiazole-5-carbonyl}-5-fluoropiperidin-3-amine] | 53 nM
COc1cc(C(=O)N2C[C@H](N)C[C@@H](F)C2)cc2nc(-c3cc4cccnc4n3CC3CC3)n(Cc3cnn(-c4cncc(C#N)c4)c3)c12 [Example 391, 5-[4-({5-[(3R,5R)-3-amino-5-fluoropiperidine-1-carbonyl]-2-[1-(cyclopropylmethyl)-1H-pyrrolo[2,3-b]pyridin-2-yl]-7-methoxy-1H-1,3-benzodiazol-1-yl}methyl)-1H-pyrazol-1-yl]pyridine-3-carbonitrile] | 47 nM
COc1cc(C(=O)N2CC3CCC2[C@@H]3N)cc2nc(-c3cc4cccnc4n3CC3CC3)n(CC3(F)CN(C(=O)c4ccccc4)C3)c12 (stereo partly drawn) [Example 438, (7R)-2-{1-[(1-benzoyl-3-fluoroazetidin-3-yl)methyl]-2-[1-(cyclopropymethyl)-1H-pyrrolo[2,3-b]pyridin-2-yl]-7-methoxy-1H-1,3-benzodiazole-5-carbonyl}-2-azabicyclo[2.2.1]heptan-7-amine] | 35 nM
COc1cncc(-n2cc(Cn3c(-c4cc5cccnc5n4CC4CC4)nc4cc(C(=O)N5CC6CCC5[C@@H]6N)cc(OC)c43)cn2)c1 (stereo partly drawn) [Example 352, (7R)-2-{2-[1-(cyclopropylmethyl)-1H-pyrrolo[2,3-b]pyridin-2-yl]-7-methoxy-1-{[1-(5-methoxypyridin-3-yl)-1H-pyrazol-4-yl]methyl}-1H-1,3-benzodiazole-5-carbonyl}-2-azabicyclo[2.2.1]heptan-7-amine] | 19 nM
N#Cc1ccc(C(=O)N2CC(Cn3c(-c4cc5cccnc5n4CC4CC4)nc4cc(C(=O)N5CC6CCC5[C@@H]6N)ccc43)C2)cc1 (stereo partly drawn) [Example 467, 4-[3-({5-[(7R)-7-amino-2-azabicyclo[2.2.1]heptane-2-carbonyl]-2-[1-(cyclopropylmethyl)-1H-pyrrolo[2,3-b]pyridin-2-yl]-1H-1,3-benzodiazol-1-yl}methyl)azetidine-1-carbonyl]benzonitrile] | 91 nM
